Data as given in patent US11339130B1 (Blade Therapeutics, Inc., priority 2016, dated 2022).
Read-outs that look alike come from different tables or passages of the source.

Tests used:
[1] = target: T1, Human Calpain 1/NS1 (Homo sapiens, UniProt P07384); assay: Calpain inhibition continuous fluorescence (FRET) assay, Human Calpain 1/NS1; format: biochemical; conditions: read-out: Human Calpain 1/NS1 IC50
T1 sequence (P07384 1-714): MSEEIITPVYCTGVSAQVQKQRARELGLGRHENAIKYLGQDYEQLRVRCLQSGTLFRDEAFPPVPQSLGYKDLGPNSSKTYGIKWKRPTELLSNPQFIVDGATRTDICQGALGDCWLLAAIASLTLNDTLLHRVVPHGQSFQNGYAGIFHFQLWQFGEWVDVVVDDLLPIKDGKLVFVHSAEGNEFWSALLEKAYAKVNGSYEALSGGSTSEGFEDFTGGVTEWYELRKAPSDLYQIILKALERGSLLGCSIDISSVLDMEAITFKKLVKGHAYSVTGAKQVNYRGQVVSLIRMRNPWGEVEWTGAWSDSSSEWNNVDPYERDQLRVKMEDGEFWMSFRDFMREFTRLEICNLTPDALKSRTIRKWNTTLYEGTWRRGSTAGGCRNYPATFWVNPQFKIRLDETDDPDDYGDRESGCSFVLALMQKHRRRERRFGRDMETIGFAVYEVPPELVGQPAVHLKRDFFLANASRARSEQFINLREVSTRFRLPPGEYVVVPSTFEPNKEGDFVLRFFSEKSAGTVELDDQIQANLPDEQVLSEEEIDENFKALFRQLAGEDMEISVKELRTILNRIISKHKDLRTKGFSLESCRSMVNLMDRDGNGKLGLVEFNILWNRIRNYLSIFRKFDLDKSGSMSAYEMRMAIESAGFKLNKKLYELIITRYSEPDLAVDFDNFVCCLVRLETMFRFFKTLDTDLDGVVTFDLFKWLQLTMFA
T1 sequence (P04632 1-268 partner): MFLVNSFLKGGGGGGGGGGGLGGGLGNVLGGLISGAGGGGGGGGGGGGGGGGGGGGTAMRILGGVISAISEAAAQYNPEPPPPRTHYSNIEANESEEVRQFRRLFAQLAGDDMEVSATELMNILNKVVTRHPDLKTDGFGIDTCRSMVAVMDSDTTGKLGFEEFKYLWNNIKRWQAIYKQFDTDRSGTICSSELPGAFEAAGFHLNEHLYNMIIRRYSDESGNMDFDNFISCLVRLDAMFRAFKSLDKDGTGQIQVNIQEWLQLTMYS
Outline: (§1)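 Inhibitors were preincubated with calpain in 50 mM Tris pH 7.5, 100 mM NaCl, 1 mM DTT at 25C. Reactions were started with 5-FAM/QXL 520 FRET peptide substrate plus CaCl2 and read at 490/520 nm for 10 min. IC50s came from 4-parameter fits of slope rates (1-5 min).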

[2] = target: T2, Human Calpain 2/NS1 (Homo sapiens, UniProt P17655); assay: Calpain inhibition continuous fluorescence (FRET) assay, Human Calpain 2/NS1; format: biochemical; conditions: read-out: Human Calpain 2/NS1 IC50
T2 sequence (P17655 1-700): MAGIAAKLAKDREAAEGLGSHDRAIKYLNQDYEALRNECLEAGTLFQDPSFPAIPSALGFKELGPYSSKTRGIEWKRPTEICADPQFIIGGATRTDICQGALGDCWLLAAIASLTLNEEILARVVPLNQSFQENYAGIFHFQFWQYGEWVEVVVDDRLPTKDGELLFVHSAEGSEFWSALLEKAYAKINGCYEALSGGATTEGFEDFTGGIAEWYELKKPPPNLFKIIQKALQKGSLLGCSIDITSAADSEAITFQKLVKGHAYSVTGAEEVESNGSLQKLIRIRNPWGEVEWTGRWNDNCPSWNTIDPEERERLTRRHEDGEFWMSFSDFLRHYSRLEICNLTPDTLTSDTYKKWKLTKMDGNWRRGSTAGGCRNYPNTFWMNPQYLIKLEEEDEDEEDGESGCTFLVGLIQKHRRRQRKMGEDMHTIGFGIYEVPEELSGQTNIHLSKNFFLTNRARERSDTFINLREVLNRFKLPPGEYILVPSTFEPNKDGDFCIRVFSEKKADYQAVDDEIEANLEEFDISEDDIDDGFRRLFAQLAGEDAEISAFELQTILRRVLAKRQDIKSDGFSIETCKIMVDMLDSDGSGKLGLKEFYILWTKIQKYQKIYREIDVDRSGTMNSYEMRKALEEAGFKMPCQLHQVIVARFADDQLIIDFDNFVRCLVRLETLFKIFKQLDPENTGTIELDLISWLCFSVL
T2 sequence (P04632 1-268 partner): T1 sequence (P04632 1-268 partner)
Outline: as §1

[3] = target: T3, Human Calpain 9/NS1 (Homo sapiens, UniProt O14815); assay: Calpain inhibition continuous fluorescence (FRET) assay, Human Calpain 9/NS1; format: biochemical; conditions: read-out: Human Calpain 9/NS1 IC50
T3 sequence (O14815 1-690): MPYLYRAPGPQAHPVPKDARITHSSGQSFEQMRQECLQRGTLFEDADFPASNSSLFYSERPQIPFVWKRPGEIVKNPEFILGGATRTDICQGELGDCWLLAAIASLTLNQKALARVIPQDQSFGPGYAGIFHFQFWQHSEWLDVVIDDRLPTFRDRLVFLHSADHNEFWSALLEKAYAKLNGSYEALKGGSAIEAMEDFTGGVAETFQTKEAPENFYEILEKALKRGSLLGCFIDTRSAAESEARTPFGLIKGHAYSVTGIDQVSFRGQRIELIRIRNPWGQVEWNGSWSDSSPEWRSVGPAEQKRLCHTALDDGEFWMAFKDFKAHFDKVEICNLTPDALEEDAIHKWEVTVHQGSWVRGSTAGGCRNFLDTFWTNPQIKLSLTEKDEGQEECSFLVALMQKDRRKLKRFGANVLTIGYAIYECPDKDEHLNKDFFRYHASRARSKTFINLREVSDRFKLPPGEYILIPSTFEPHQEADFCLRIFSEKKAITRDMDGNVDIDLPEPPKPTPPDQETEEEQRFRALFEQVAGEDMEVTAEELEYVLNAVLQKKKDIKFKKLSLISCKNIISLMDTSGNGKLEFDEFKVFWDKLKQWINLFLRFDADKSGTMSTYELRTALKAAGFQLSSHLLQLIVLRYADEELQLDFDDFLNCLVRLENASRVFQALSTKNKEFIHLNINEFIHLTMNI
T3 sequence (P04632 1-268 partner): T1 sequence (P04632 1-268 partner)
Outline: as §1

[4] = system: Calpain activity in SH-SY5Y cells (SBDP-150); assay: SH-SY5Y Spectrin western blot assay (SBDP-150 breakdown product, A23187-induced); format: cell-based; conditions: Homo sapiens, SH-SY5Y cells, read-out: SH-SY5Y Spectrin IC50
[5] = system: Calpain activity in SH-SY5Y cells; assay: SH-SY5Y + AMC fluorescence assay (Suc-LLVY-AMC substrate); format: cell-based; conditions: read-out: SH-SY5Y + AMC IC50
[6] = Column D, A23187-induced SBDP-150
[7] = A23187-induced SBDP-150, western blot

SMILES	IC50 ([1]; Column A)	IC50 ([2]; Column B)	IC50 ([3]; Column C)	IC50 [4, 6]	IC50 ([5]; Column E)	IC50 [1]	IC50 [2]	IC50 [3]	IC50 [4, 7]	IC50 [5]
Cc1noc(-c2ccccc2)c1C(=O)N[C@@H](Cc1c[nH]c2ccccc12)C(=O)C(N)=O [Compound 57, (S)—N-(4-amino-1-(1H-indol-3-yl)-3,4-dioxobutan-2-yl)-3-methyl-5-phenylisoxazole-4-carboxamide]	< 3 µM	< 3 µM	< 3 µM	< 10 µM	10 to 25 µM					
Cn1ncc(C(=O)N[C@@H](Cc2ccccc2)C(=O)C(N)=O)c1-c1ccccn1 [Compound 164, (S)—N-(4-amino-3,4-dioxo-1-phenylbutan-2-yl)-1-methyl-5-(pyridin-2-yl)-1H-pyrazole-4-carboxamide]	< 3 µM	< 3 µM	< 3 µM	> 25 µM	> 25 µM					
CC#Cc1nn(-c2ccccc2)cc1C(=O)NC(Cc1ccccc1)C(=O)C(N)=O (centres unmarked) [Compound 562, N-(4-amino-3,4-dioxo-1-phenylbutan-2-yl)-1-phenyl-3-(prop-1-yn-1-yl)-1H-pyrazole-4-carb oxamide]						> 10 µM	> 10 µM	> 10 µM	> 25 µM	< 10 µM
NC(=O)C(=O)C(CCc1ccccc1)NC(=O)c1nsnc1-c1ccccc1 (centres unmarked) [Compound 463, N-(1-amino-1,2-dioxo-5-phenylpentan-3-yl)-4-phenyl-1,2,5-thiadiazole-3-carboxamide]						< 3 µM	< 3 µM	< 3 µM	< 10 µM	> 25 µM

The remaining lines, values ahead:

IC50 ([1]; Column A)	IC50 ([2]; Column B)	IC50 ([3]; Column C)	IC50 [4, 6]	IC50 ([5]; Column E)	IC50 [1]	IC50 [2]	IC50 [3]	IC50 [4, 7]	IC50 [5]	SMILES
					< 3 µM	< 3 µM	< 3 µM	10 to 25 µM	10 to 25 µM	NC(=O)C(=O)C(Cc1ccccc1)NC(=O)c1cn(C(F)F)nc1-c1cncc(F)c1 (centres unmarked) [Compound 586, N-(4-amino-3,4-dioxo-1-phenylbutan-2-yl)-1-(difluoromethyl)-3-(5-fluoropyridin-3-yl)-1H-pyrazole-4-carboxamide]
					< 3 µM	< 3 µM	< 3 µM	> 25 µM	> 25 µM	Cn1cc(C(=O)NC(Cc2ccccc2)C(=O)C(N)=O)c(-c2cccc3c2OCCO3)n1 (centres unmarked) [Compound 570, N-(4-amino-3,4-dioxo-1-phenylbutan-2-yl)-3-(2,3-dihydrobenzo[b][1,4]dioxin-5-yl)-1-methyl-1H-pyrazole-4-carboxamide]
					< 3 µM	< 3 µM	< 3 µM	< 10 µM	> 25 µM	Cc1cc(C)cc(CC(NC(=O)c2nsnc2-c2ccccc2)C(=O)C(N)=O)c1 (centres unmarked) [Compound 466, N-(4-amino-1-(3,5-dimethylphenyl)-3,4-dioxobutan-2-yl)-4-phenyl-1,2,5-thiadiazole-3-carboxamide]
